Experiments:
[1] = system: HCV; test: activity of Example 26 (test not stated; patent concerns anti-hepatitis C activity); conditions: test not specified
[2] = patients treated at currently recommended doses; cited from earlier work

| Compound | activity (stated in words) [1] | patients with significant hemolysis [2] |
| --- | --- | --- |
| O=P(O)(O)OP(=O)(O)OP(=O)(O)OC[C@H]1O[C@@H](n2cnc3c(NO)ncnc32)[C@H](O)[C@@H]1O [Example 26, 6-Hydroxylamino-9-β-D-ribofuranosylpurine 5′-Triphosphate] | inactive | – |
| NC(=O)c1ncn([C@@H]2O[C@H](CO)[C@@H](O)[C@H]2O)n1 [Ribavirin, 1-β-D-ribofuranosyl-1H-1,2,-4-triazole-3-carboxamide] | – | 10-20% |
